In brackets after ≈: the same amount, converted by molar mass. Several values for one entry are separate records, joined by “and”; a condition that tells them apart may be missing. Identical values can stand only once.
What was measured:
Trypanosoma cruzi [1] = assay: (§1) DNDI: Chagas in Vitro; format: functional, organism-based, Tulahuen C4 (LacZ)
Trypanosoma cruzi [2] = assay: as §1; format: functional, Tulahuen C4 (LacZ)
[3] = (§2) DNDI: Cytotoxicity against L-6 rat myoblasts from skeletal musclE; conditions: L6 rat skeletal muscle myoblasts, IC50
[4] = tested on: Trypanosoma brucei rhodesiense; assay: DNDI: HAT in Vitro; format: functional, organism-based; conditions: ATCC 30027
[5] = DNDI: Lipophilicity (gLogD) at pH 3; conditions: buffer
[6] = DNDI: Lipophilicity (gLogD) at pH 7.4; conditions: buffer
[7] = DNDI: Solubility in 0.01M HCl at pH 2 determined by nephelometry
[8] = DNDI: Solubility in phosphate buffer at pH 6.5 determined by nephelometry
Cytochrome P450 3A4 [9] = molecular target: T1, Cytochrome P450 3A4 (Homo sapiens, UniProt P08684)
T1 sequence (P08684 whole entry): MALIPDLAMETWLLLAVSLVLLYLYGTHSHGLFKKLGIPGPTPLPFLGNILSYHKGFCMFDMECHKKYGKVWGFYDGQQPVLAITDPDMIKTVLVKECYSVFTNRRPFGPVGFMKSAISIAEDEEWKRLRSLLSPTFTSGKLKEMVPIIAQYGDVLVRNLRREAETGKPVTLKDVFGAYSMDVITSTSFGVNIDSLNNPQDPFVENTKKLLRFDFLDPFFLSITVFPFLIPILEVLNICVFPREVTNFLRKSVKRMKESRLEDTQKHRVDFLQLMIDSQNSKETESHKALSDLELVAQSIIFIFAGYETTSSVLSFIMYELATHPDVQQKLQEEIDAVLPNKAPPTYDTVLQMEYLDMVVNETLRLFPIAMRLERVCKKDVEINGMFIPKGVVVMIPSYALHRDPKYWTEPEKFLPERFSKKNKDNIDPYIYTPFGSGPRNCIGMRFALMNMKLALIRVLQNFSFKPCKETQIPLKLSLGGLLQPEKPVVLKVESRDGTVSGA

in vitro [10] = conditions: human, microsomes
in vitro [11] = conditions: human, microsomes; remark: listed apart in the source
in vitro [12] = conditions: human, microsomes; remark: listed apart in the source
Leishmania donovani = assay: DNDI: Inhibition of formation of Leishmania donovani; format: functional, MHOM/ET/67/L82; set-up: concentration or dose not given beside the values
[13] = DNDI: Metabolism; format: ADME, Microsome; conditions: rat, microsomes; for hepatic extraction ratio: read-out: EH
Cytochrome P450 3A4 [14] = molecular target: T1, Cytochrome P450 3A4; remark: listed apart in the source
L6 = assay: as §2
[15] = human, microsomes
[16] = human, microsomes; remark: listed apart in the source
[17] = human, microsomes; remark: listed apart in the source
Cytochrome P450 3A4 [18] = molecular target: T1, Cytochrome P450 3A4; assay: DNDI: CYP Inhibition; format: ADME
[19] = Trypanosoma cruzi, Tulahuen C4 (LacZ)

IC50 (Trypanosoma cruzi [1]; [19]) | IC90 (Trypanosoma cruzi [2]) | IC90 (Trypanosoma cruzi [2]; [19]) | chromatographic logD ([5]; pH 3) | half-life [13] | microsomal CLint [13] | hepatic extraction ratio [13] | half-life (in vitro [10]) | hepatic extraction ratio (in vitro [11]) | microsomal CLint (in vitro [12]) | Structure (SMILES) | IC50 (Trypanosoma cruzi [1]) | IC50 [3] | chromatographic logD ([5]; pH 3, logD) | chromatographic logD ([6]; pH 7.4, logD) | solubility kinetic [7] | solubility kinetic [8] | half-life (in vitro [10]; t (1 / 2)) | microsomal CLint (in vitro [12]; CLint) | % inhibition (Leishmania donovani) | further results
0.000618 µM |  | 0.00147 µM | 3.5 | 24 min | 72.1 µL/min/mg | 0.7 | 7 min | 0.93 | 247 µL/min/mg | O=C(c1ccccc1C(F)(F)F)N1CCC(N(c2ccc(C(F)(F)F)cc2)c2cccnc2)CC1 |  |  |  |  | > 100 µg/mL | 1.6 µg/mL (≈ 3.24 µM) |  |  | 66.3% | chromatographic logD ([6]; pH 7.4): 4.4; IC50 (Cytochrome P450 3A4 [14]): 1.7 µM
0.003 µM | 0.01 µM | 0.009 µM | 4.6 |  |  |  | 43.9 min |  | 39.5 µL/min/mg | N#Cc1ccc(N(c2cccnc2)C2CCN(c3ccc(C(F)(F)F)cc3)CC2)cc1 |  | > 100 µM |  |  |  | < 1.6 µg/mL |  |  | 28.1% | 
0.015 µM | 0.028 µM and 0.041 µM | 0.038 µM |  |  |  |  |  |  |  | FC(F)(F)c1ccc(N2CCC(N(c3ccc(C(F)(F)F)cc3)c3cccnc3)CC2)cc1 | 0.023 µM and 0.0165 µM |  |  |  |  |  |  |  | 38.5% | 
0.094 µM |  | 0.28 µM | 1.6 | 27.7 min | 62.6 µL/min/mg | 0.67 | 35.5 min | 0.73 | 48.8 µL/min/mg | CS(=O)(=O)N1CCC(N(c2ccc(Cl)cc2)c2cccnc2)CC1 |  | 62.5 µM |  |  | > 100 µg/mL | 12.5 µg/mL (≈ 34.2 µM) |  |  |  | IC50 (Cytochrome P450 3A4 [18]): 2.6 µM; chromatographic logD ([6]; pH 7.4): 3.1
0.016 µM |  | 0.0617 µM | 2.1 | 7.5 min | 231 µL/min/mg | 0.88 | 12.5 min | 0.89 | 139 µL/min/mg | O=C(c1ccccc1)N1CCC(N(c2ccc(Cl)cc2)c2cccnc2)CC1 |  | 52.5 µM |  |  | > 100 µg/mL | 6.3 µg/mL (≈ 16.1 µM) |  |  |  | IC50 (Cytochrome P450 3A4 [18]): 1.9 µM; chromatographic logD ([6]; pH 7.4): 3.8
0.01 µM | 0.021 µM and > 0.1 µM |  |  |  |  |  |  |  |  | FC(F)(F)c1ccc(N(c2cncnc2)C2CCN(c3ccc(C(F)(F)F)nc3)CC2)cc1 | 0.0159 µM |  |  |  |  |  |  |  |  | IC50 [4]: > 10 µM
0.000595 µM |  | 0.00193 µM | 2.4 | 4.9 min | 357 µL/min/mg | 0.92 | 9.9 min | 0.91 | 175 µL/min/mg | CC(C)(C)CC(=O)N1CCC(N(c2ccc(Cl)cc2)c2cccnc2)CC1 |  |  |  |  | > 100 µg/mL |  |  |  | 42.9% | IC50 (Cytochrome P450 3A4 [18]): 0.8 µM

More lines, now with the values behind:

Structure (SMILES) | IC50 (Trypanosoma cruzi [1]; [19]) | IC90 (Trypanosoma cruzi [2]) | IC90 (Trypanosoma cruzi [2]; [19]) | chromatographic logD ([5]; pH 3) | half-life [13] | microsomal CLint [13] | hepatic extraction ratio [13] | half-life (in vitro [10]) | hepatic extraction ratio (in vitro [11]) | microsomal CLint (in vitro [12]) | IC50 (Trypanosoma cruzi [1]) | IC50 [3] | chromatographic logD ([5]; pH 3, logD) | chromatographic logD ([6]; pH 7.4, logD) | solubility kinetic [7] | solubility kinetic [8] | half-life (in vitro [10]; t (1 / 2)) | microsomal CLint (in vitro [12]; CLint) | % inhibition (Leishmania donovani) | further results
FC(F)(F)c1ccc(N(c2cccnc2)C2CCN(C(c3ccccc3)C(F)(F)F)CC2)cc1 (configuration not stated) | 5.13 µM | 8.14 µM | 8.14 µM |  |  |  |  |  |  |  | 5.13 µM | > 100 µM | > 5.3 | > 5.3 | > 100 µg/mL | 1.6 µg/mL (≈ 3.34 µM) | 62.6 min | 27.7 µL/min/mg |  | IC50 [4]: > 10 µM; IC50 (Cytochrome P450 3A4 [9]): > 20 µM; hepatic extraction ratio (in vitro [11]; EH): 0.61
CC(O)C(C)N1CCC(N(c2ccc(C(F)(F)F)cc2)c2cccnc2)CC1 (configuration not stated) |  | 0.96 µM and > 0.1 µM |  |  |  |  |  |  |  |  | 0.424 µM and 0.075 µM | 64.8 µM | 1.3 | 2.9 | > 100 µg/mL | 25 µg/mL (≈ 63.5 µM) | 72.9 min | 23.8 µL/min/mg |  | IC50 (L6): 59.6 µM; IC50 (Cytochrome P450 3A4 [9]): > 20 µM; t (1 / 2) [15]: 55.4 min; EH [16]: 0.57; CLint [17]: 31.3 µL/min/mg; hepatic extraction ratio (in vitro [11]; EH): 0.64
CC(C)(F)CN1CCC(N(c2ccc(C(F)(F)F)cc2)c2cccnc2)CC1 | 0.015 µM |  | 0.025 µM |  |  |  |  |  |  |  |  | 64.9 µM | 1.8 | 5.1 | > 100 µg/mL | 3.1 µg/mL (≈ 7.84 µM) | 12.6 min | 138 µL/min/mg |  | IC50 [4]: > 10 µM
CCC(C(C)=O)N1CCC(N(c2ccc(C(F)(F)F)cc2)c2cccnc2)CC1 (configuration not stated) | 0.008 µM |  | 0.02 µM |  |  |  |  |  |  |  |  | 25 µM | 1.6 | 4.6 | > 100 µg/mL | 12.5 µg/mL (≈ 30.8 µM) | 11.1 min | 156 µL/min/mg |  | IC50 (Cytochrome P450 3A4 [9]): 10 µM; hepatic extraction ratio (in vitro [11]; EH): 0.9
